What was measured:
Format in all cases: physicochemical
[1] = Flash point / non-flammability, ASTM D3828-16a, NFPA 30
Source text: Flash Point refers the lowest temperature at which vapors of the liquid will keep burning after the ignition source is removed as determined in accordance with ASTM D3828-16a.
The flash point of a thermal management composition or fluid refers the lowest temperature at which vapours of the composition will keep burning after the ignition source is removed as determined in accordance with ASTM D3828-16a.

Normal boiling point = assay: Normal boiling point
[2] = Dielectric constant, ASTM D150-11, room temperature, 20 GHz
Source text: Dielectric Constant means the dielectric constant as measured in accordance with ASTM D150-11 at room temperature at 20 giga hertz (GHz).

FC(F)(F)COC(C(F)(F)F)C(F)(F)F [Compound 1A, propane, 2-(2′,2′,2′-trifluorethoxy)-(1,1,1,3,3,3-hexafluoro)]
flash point [1]: no flash point | normal boiling point (Normal boiling point): about 69 °C | dielectric constant [2]: below 4
